One data set relates to MDA-MB-436 cells. Briefly: Cell proliferation inhibition assay (CCK8). It counts as cell-based. As to conditions: Homo sapiens, 72 hours.
In data set [1] the test system is human colon carcinoma SW620. Put plainly: Antitumor effect with temozolomide on SW620 transplanted tumors in nude mice. It counts as in vivo. As to conditions: colon carcinoma SW620 in BALB/cA-nude mice; 1 mg/kg oral gavage + TMZ 50 mg/kg oral gavage; day 44. As to the method:
The therapeutic effect of the compounds of the present invention administered in combination with temozolomide (TMZ) on transplanted tumors of human colon carcinoma SW620 or human breast cancer cells MX-1 in nude mice was evaluated by using BALB/cA-nude mice as test animals.
BALB/cA-nude mice, SPF, 16-20 g, female( ), were purchased from SINO-BRITSH SIPPR/BK LAB. ANIMAL LTD., CO. Certificate No.: SCXK(Shanghai) 2008-0016.
4.2 The right rib of the nude mice was subcutaneously inoculated with colon carcinoma cells SW620. After tumors grew to 339±132 mm^3, mice were randomly divided into teams (d0).
The volume of tumors and the weight of the mice were measured and recorded for 2 to 3 times per week.
The volume of tumor (V) was calculated by the follow equation: V=½×a×b^2 wherein: a, b represents length and width respectively. The antitumor rate(%)=(C−T)/C(%) wherein: T, C represents the tumor volume of the experimental group (tested compounds) and blank control group at the end of the experiment respectively. 5. Dosage, Dosage Regimens and the Results

Data set [2] is described as follows: Pharmacokinetics assay in SD rats (LC/MS/MS plasma concentration). It counts as in vivo. The following applies: 15 mg/kg; for AUC / half-life / MRT / Cmax / bioavailability: both sexes, rat, plasma; for AUC: read-out: Area Under Curve AUC; for half-life: read-out: Half-Life t1/2 (converted); for MRT: read-out: Mean Residence Time MRT; for Cmax: read-out: Plasma Conc. Cmax; for bioavailability: po. As to the method: The pharmacokinetic behavior of the compounds of the present invention was studied and evaluated in rats.
24 Healthy adult SD rats, male and female in half, were purchased from SINO-BRITSH SIPPR/BK LAB. ANIMAL LTD., CO, Certificate No.: SCXK (Shanghai) 2003-0002.
The intragastrical administration group: the right amount of tested compounds were weighed and dissolved in 0.5 mL of DMSO, diluted with physiological saline to 10 mL and prepared to 1.5 mg/mL.
The intravenous injection administration group: the right amount of tested compounds were weighed and added into […].
After an overnight fast, 24 healthy adult SD rats, male and female in half, were administered intragastrically at a dose of 15.0 mg/kg and an administration volume of 10 mL/kg.
The intragastrical administration group: blood samples (0.2 mL) were taken from orbital sinus at pre administration and at 0.25 hour, 0.5 hour, 1.0 hour, 1.5 hours, 2.0 hours, 3.0 hours, 4.0 hours, 6.0 hours, 7.0 hours, 9.0 hours, 12.0 hours and 24.0 hours post administration, stored in heparinized tubes and centrifuged for 20 minutes at 3,500 rpm to separate plasma. The plasma samples were stored at −20° C. The rats were fed at 2 hours after administration.
The intravenous injection administration group: blood samples (0.2 mL) were taken from orbital sinus at pre administration and at 2 minutes, 15 minutes, 0.5 hour, 1.0 hour, 2.0 hours, 3.0 hours, 4.0 hours, 6.0 hours, 8.0 hours, 12.0 hours and 24.0 hours post administration, stored in heparinized tubes and centrifuged for 20 minutes at 3,500 rpm to separate plasma. The plasma samples were stored at −20° C.
20 μL of rat blank plasmas taken at various time points after administration were added with 50 μL of internal standard solution and 140 μL of methanol and mixed for 3 minutes by a vortexer. The mixture was centrifuged for 10 minutes at 13,500 rpm. 20 μL of the supernatant was analyzed by LC-MS/MS. The main pharmacokinetic parameters were calculated by software DAS 2.0.

Where two headings read alike, the source gives them in different places.

In the data set with MDA-MB-436 cells, `O=C(c1cc(Cc2n[nH]c(=O)c3ccccc23)ccc1F)N1CCn2c(nnc2C(F)(F)F)C1` [Example 1, 4-[[4-fluoro-3-[3-(trifluoromethyl)-6,8-dihydro-5H-[1,2,4]triazolo[4,3-a]pyrazine-7-carbonyl]phenyl]methyl]-2H-phthalazin-1-one] returned an IC50 of 0.0008 µM. For the same molecule, in data set [1], the “antitumor rate (%)” value is recorded as “++ (“++”: 60%~80%)”.
In the data set on MDA-MB-436 cells, `COC(=O)c1nc(C(F)(F)F)n2c1CN(C(=O)c1cc(Cc3n[nH]c(=O)c4ccccc34)ccc1F)CC2` [Example 3, methyl 7-[2-fluoro-5-[(4-oxo-3H-phthalazin-1-yl)methyl]benzoyl]-3-(trifluoromethyl)-6,8-dihydro-5H-imidazo[1,5-a]pyrazine-1-carboxylate] returned an IC50 of 0.19 µM.
`O=C(c1cc(Cc2n[nH]c(=O)c3ccccc23)ccc1F)N1CCn2c(cnc2C(F)(F)F)C1` [Example 5, 4-[[4-fluoro-3-[3-(trifluoromethyl)-6,8-dihydro-5H-imidazo[1,5-a]pyrazine-7-carbonyl]phenyl]methyl]-2H-phthalazin-1-one] displayed an IC50 in the data set on MDA-MB-436 cells of 0.32 µM.
In turn, `CCNC(=O)c1nc(C(F)(F)F)n2c1CN(C(=O)c1cc(Cc3n[nH]c(=O)c4ccccc34)ccc1F)CC2` [Example 7, N-ethyl-7-[2-fluoro-5-[(4-oxo-3H-phthalazin-1-yl)methyl]benzoyl]-3-(trifluoromethyl)-6,8-dihydro-5H-imidazo[1,5-a]pyrazine-1-carboxamide] registered an IC50 in the data set on MDA-MB-436 cells of 0.071 µM. Moreover, in data set [2] (intravenous injection), the AUC was 34800 ± 15500 ng·h/mL, the half-life is 0.94 ± 0.26 h, the MRT is 1.25 ± 0.53 h and the “Apparent Distribution Volume Vz/F” value worked out at 0.64 ± 0.19 kg⁻¹. Moreover, the “Clearance CL/F” value in data set [2] (intravenous injection) was 0.52 ± 0.29 1/11/kg. In data set [2] (oral gavage), the AUC turned out to be 4500 ± 6670 ng·h/mL, the half-life is 3.87 ± 4.03 h, the MRT came to 12.7 ± 15.4 h and the Cmax amounted to 971 ± 1400 ng/mL. Besides, in data set [2] (oral gavage), the “Apparent Distribution Volume Vz/F” value came to 103 ± 134 kg⁻¹ and the “Clearance CL/F” value was 15.4 ± 12.4 1/11/kg. The bioavailability in data set [2] was determined as 12.9%.
On to `NC(=O)c1nc(C(F)(F)F)n2c1CN(C(=O)c1cc(Cc3n[nH]c(=O)c4ccccc34)ccc1F)CC2` [Example 10, 7-[2-fluoro-5-[(4-oxo-3H-phthalazin-1-yl)methyl]benzoyl]-3-(trifluoromethyl)-6,8-dihydro-5H-imidazo[1,5-a]pyrazine-1-carboxamide], for which, in the data set on MDA-MB-436 cells, the IC50 was 0.14 µM.
On the same count and under the same terms, the figure for `O=C(c1cc(Cc2n[nH]c(=O)c3ccccc23)ccc1F)N1CCn2cc(C(F)(F)F)nc2C1` [Example 12, 4-[[4-fluoro-3-[2-(trifluoromethyl)-6,8-dihydro-5H-imidazo[1,2-a]pyrazine-7-carbonyl]phenyl]methyl]-2H-phthalazin-1-one] is 0.59 µM.
The molecule `CNC(=O)c1nc(C(F)(F)F)n2c1CN(C(=O)c1cc(Cc3n[nH]c(=O)c4ccccc34)ccc1F)CC2` [Example 13, 7-[2-fluoro-5-[(4-oxo-3H-phthalazin-1-yl)methyl]benzoyl]-N-methyl-3-(trifluoromethyl)-6,8-dihydro-5H-imidazo[1,5-a]pyrazine-1-carboxamide] registered an IC50 in the data set with MDA-MB-436 cells of 0.12 µM. For the same molecule, in data set [2] (intravenous injection), the exposure (AUC) worked out at 29400 ± 18500 ng·h/mL, the half-life was 5.05 ± 1.34 h, the MRT came out at 0.89 ± 0.44 h and the “Apparent Distribution Volume Vz/F” value came out at 4.70 ± 2.17 kg⁻¹. For the same molecule, in data set [2] (intravenous injection), the “Clearance CL/F” value is given as 0.72 ± 0.45 1/11/kg. In addition, in data set [2] (oral gavage), the AUC was determined as 4300 ± 3250 ng·h/mL, the half-life is 6.01 ± 2.27 h, the MRT is 1.87 ± 0.53 h and the Cmax was 3070 ± 719 ng/mL. Besides, in data set [2] (oral gavage), the “Apparent Distribution Volume Vz/F” value worked out at 49.9 ± 52.9 kg⁻¹ and the “Clearance CL/F” value is listed as 4.47 ± 3.78 1/11/kg. In data set [2], this molecule yielded a bioavailability of 16.8%.
As for `O=C(c1cccc(Cc2n[nH]c(=O)c3ccccc23)c1)N1CCn2c(nnc2C(F)(F)F)C1` [Example 15, 4-[[3-[3-(trifluoromethyl)-6,8-dihydro-5H-[1,2,4]triazolo[4,3-a]pyrazine-7-carbonyl]phenyl]methyl]-2H-phthalazin-1-one], in the data set with MDA-MB-436 cells, half-maximal inhibition (IC50) was put at 0.0009 µM.
As to `O=C(c1cc(Cc2n[nH]c(=O)c3ccccc23)ccc1F)N1CCn2ncnc2C1` [Example 16, 4-[[3-(6,8-dihydro-5H-[1,2,4]triazolo[1,5-a]pyrazine-7-carbonyl)-4-fluoro-phenyl]methyl]-2H-phthalazin-1-one], the IC50 with MDA-MB-436 cells is 0.099 µM.
With `O=C(c1cc(Cc2n[nH]c(=O)c3ccccc23)ccc1F)N1CCn2cnnc2C1` [Example 17, 4-[[3-(6,8-dihydro-5H-[1,2,4]triazolo[4,3-a]pyrazine-7-carbonyl)-4-fluoro-phenyl]methyl]-2H-phthalazin-1-one], inhibition with MDA-MB-436 cells was half-maximal at 0.061 µM (IC50).
On the same count and under the same terms, in the case of `O=C(c1cc(Cc2n[nH]c(=O)c3ccccc23)ccc1F)N1CCn2c(C(F)(F)F)nc(C(=O)N3CCCC3)c2C1` [Example 18, 4-[[4-fluoro-3-[1-(pyrrolidine-1-carbonyl)-3-(trifluoromethyl)-6,8-dihydro-5H-imidazo[1,5-a]pyrazine-7-carbonyl]phenyl]methyl]-2H-phthalazin-1-one] it was 0.61 µM; in that of `CNC(=O)c1nc(C(F)(F)F)n2c1CN(C(=O)c1cccc(Cc3n[nH]c(=O)c4ccccc34)c1)CC2` [Example 21, N-methyl-7-[3-[(4-oxo-3H-phthalazin-1-yl)methyl]benzoyl]-3-(trifluoromethyl)-6,8-dihydro-5H-imidazo[1,5-a]pyrazine-1-carboxamide], 0.78 µM.
Same read-out and setting: in the case of `CN(C)C(=O)c1nc(C(F)(F)F)n2c1CN(C(=O)c1cc(Cc3n[nH]c(=O)c4ccccc34)ccc1F)CC2` [Example 22, 7-[2-fluoro-5-[(4-oxo-3H-phthalazin-1-yl)methyl]benzoyl]-N,N-dimethyl-3-(trifluoromethyl)-6,8-dihydro-5H-imidazo[1,5-a]pyrazine-1-carboxamide] it was 0.65 µM; in that of `O=C(c1cc(Cc2n[nH]c(=O)c3ccccc23)ccc1F)N1CCn2c(nnc2C(F)F)C1` [Example 23, 4-[[3-[3-(difluoromethyl)-6,8-dihydro-5H-[1,2,4]triazolo[4,3-a]pyrazine-7-carbonyl]-4-fluoro-phenyl]methyl]-2H-phthalazin-1-one], 0.002 µM; in that of `O=C(NCC1CC1)c1nc(C(F)(F)F)n2c1CN(C(=O)c1cc(Cc3n[nH]c(=O)c4ccccc34)ccc1F)CC2` [Example 24, N-(cyclopropylmethyl)-7-[2-fluoro-5-[(4-oxo-3H-phthalazin-1-yl)methyl]benzoyl]-3-(trifluoromethyl)-6,8-dihydro-5H-imidazo[1,5-a]pyrazine-1-carboxamide], 0.072 µM.
For the molecule `O=C(c1cc(Cc2n[nH]c(=O)c3ccccc23)ccc1F)N1CCn2c(nnc2CC(F)(F)F)C1` [Example 26, 4-[[4-fluoro-3-[3-(2,2,2-trifluoroethyl)-6,8-dihydro-5H-[1,2,4]triazolo[4,3-a]pyrazine-7-carbonyl]phenyl]methyl]-2H-phthalazin-1-one], the IC50 in the data set on MDA-MB-436 cells is 0.003 µM.

These data come from patent US9273052B2, “Phthalazinone ketone derivative, preparation method thereof, and pharmaceutical use thereof” (Jiangsu Hansoh Pharmaceutical Co., Ltd., priority 2010, dated 2016).
